{"source": "patent US20040044032A1", "about": "“Farnesyl protein transfer inhibitors for the treatment of inflammatory bowel disease” (priority 2003, published 2004)", "key": {"[1]": {"tested_on": "DSS-induced colitis in mice", "type": "in vivo", "conditions": "for Mean Weight (±SEM) DAY 0: Day 0 (baseline); for Mean Colon Length Cm ± SEM: necropsy Day 7; for deaths: 10 mice/group", "text": "The purpose of this study was to identify, characterize and document the preventative actions of compound 75 above, namely (+)-6-[amino(4-chlorophenyl) (1-methyl-1H-imidazol-5-yl)methyl]-4-(3-chlorophenyl)-1-methyl-2(1H)-quinolinone, a compound of formulae (I), in an experimental model of inflammatory bowel disease in mice.\nA group of female Swiss-Webster mice was received from Ace Animals, Inc., Boyertown, Pa. The animals were grouped housed (5 mice/cage) in plastic cages with water absorbent bedding. […] The animals were fed Purina Rodent Chow #5012 and filtered tap water was supplied ad libitum by automatic watering system (during acclimation).\nFollowing an acclimation period of 9 days, 40 healthy mice were selected for this study. The test animals were distributed (10 mice/group) into each one of the 4 test groups described below. There were no statistical significant differences between the mean group body weights.\nIndividual doses were calculated based on daily body weights. Prior to administration, Compound 75 was mixed with the vehicle (Beta cyclodextrin (40%) in 0.1 N HCL). This mixture was further diluted with 0.1 N HCL. The resulting mixture was then used to prepare the dilutions for groups 3 and 4. A 20% solution of Beta cyclodextrin in 0.1 N HCL was used for Groups 1 and 2 and constituted the vehicle control. Groups 2 through 4 were given a 5% w/w solution of dextran sulfate sodium (DSS) in distilled water substituted for their normal water supply (approximately 10 ml/mouse/day) from Days 0 through 6. Each group of animals received the appropriate amount of the test substance, as described above, by intubation using a stainless steel ball-tipped gavage needle attached to an appropriate syringe.\n(§1) All mice were weighed daily and observed for signs of gross toxicity and behavioural changes, consistency of stool and presence of gross blood during the study. On Day 7, all animals were euthanized by CO2 inhalation and necropsied. Following euthanasia, a stool sample was obtained from the colon of each animal and tested for occult blood (Quik-Cult, Laboratory Diagnostics Co., Morganville, N.J.). The colons were then removed and the length from the colo-cecal junction to the end of the distal rectum was measured. A segment of colon was collected from each animal and preserved in 10% formalin.\n(§2) For each group, the disease activity index (DAI) was determined by evaluating changes in weight, Hemoccult positivity or gross bleeding and stool consistency using the following system.\n(§3) Data was analyzed using analysis of variance (single factor). Statistically methods included the Mann-Whitney test, ANOVA and Turkey-Kramer Multiple Comparisons test.\n(§4) Statistical significance between test and control groups was established at a probability of p<0.05."}, "[2]": {"tested_on": "DSS-induced colitis in mice", "test": "Prevention of DSS-induced colitis in mice, repeat study with lower PO doses in 0.1 N HCl", "type": "in vivo", "conditions": "for weight DAY 0: Day 0 (baseline); for % Inh. Colonic Shortening / % of Normal Length Shortening / DAI mean ± SEM / DAINWT mean ± SEM / Mean Colon Length Cm ± SEM: 5% DSS days 0-7", "text": "as §1, §2, §3, §4\nIn view of the above results the experiment was repeated with lower doses of compound 75. The above procedure was followed with the following groups\nIndividual doses were calculated based on daily body weights. Prior to administration, 50 mg of Compound 75 was diluted with 10 milliliters of 0.1N HCl (50 mg/kg for Group 5). The resulting solution was then further diluted twice, with 5 ml increments and used for the 25 (Group 4) and 12.5 (Group 3) mg/kg dose levels. The 0.1 N HCl was used for Groups 1 and 2 and constituted the vehicle control. Groups 2 through 5 were given a 5% w/w solution of dextran sulfate sodium (DSS) in distilled water substituted for their normal water supply (approximately 10 ml:mouse/day) from Days 0 through 7. Each group of animals received the appropriate amount of the test substance, as described above, by intubation using a stainless steel ball-tipped gavage needle attached to an appropriate syringe."}, "[3]": {"conditions": "25 mg/kg PO bid days 0-6, 5% DSS"}, "[4]": {"conditions": "50 mg/kg PO bid days 0-6, 5% DSS"}}, "note": "Read-outs that look alike come from different tables or passages of the source."}
{"smiles": "Cn1cncc1C(N)(c1ccc(Cl)cc1)c1ccc2c(c1)c(-c1cccc(Cl)c1)cc(=O)n2C", "note": "(single isomer, unassigned; (+)) [Compound 75, (+)-6-[amino(4-chlorophenyl)(1-methyl-1H-imidazol-5-yl)methyl]-4-(3-chlorophenyl)-1-methyl-2(1H)-quinolinone]", "values": [{"measurement": "Mean Weight (±SEM) DAY 0", "setting": "[1]; 25 mg/kg PO bid + DSS", "value": "25.1 ± 0.5", "unit": "grams"}, {"measurement": "% weight change (±SEM) DAY 5", "setting": "[1]; 25 mg/kg PO bid + DSS", "value": "−8.3 ± 1.5", "unit": "%"}, {"measurement": "Mean Weight (±SEM) DAY 5", "setting": "[1]; 25 mg/kg PO bid + DSS", "value": "23.0 ± 0.5", "unit": "grams"}, {"measurement": "% weight change (±SEM) DAY 6", "setting": "[1]; 25 mg/kg PO bid + DSS", "value": "−8.7 ± 2.7", "unit": "%"}, {"measurement": "Mean Weight (±SEM) DAY 6", "setting": "[1]; 25 mg/kg PO bid + DSS", "value": "22.9 ± 0.7", "unit": "grams"}, {"measurement": "% weight change (±SEM) DAY 7", "setting": "[1]; 25 mg/kg PO bid + DSS", "value": "−9.6 ± 3.5", "unit": "%"}, {"measurement": "Mean Weight (±SEM) DAY 7", "setting": "[1]; 25 mg/kg PO bid + DSS", "value": "22.7 ± 0.9", "unit": "grams"}, {"measurement": "% of Normal Length Shortening", "setting": "[1]; [3]", "value": 82.0, "unit": "%"}, {"measurement": "Blood in Feces (%)", "setting": "[1]; [3]", "value": 0, "unit": "%"}, {"measurement": "DAI mean ± SEM", "setting": "[1]; [3]", "value": "1.70 ± 0.26"}, {"measurement": "DAINWT Mean ± SEM (DAI without body weight parameter)", "setting": "[1]; [3]", "value": "1.50 ± 0.22"}, {"measurement": "Mean Colon Length Cm ± SEM", "setting": "[1]; [3]", "value": "9.7 ± 0.3", "unit": "Cm"}, {"measurement": "deaths", "setting": "[1]; 25 mg/kg dose", "value": 1}, {"measurement": "Mean Weight (±SEM) DAY 0", "setting": "[1]; 50 mg/kg PO bid + DSS", "value": "25.6 ± 0.5", "unit": "grams"}, {"measurement": "% weight change (±SEM) DAY 5", "setting": "[1]; 50 mg/kg PO bid + DSS", "value": "−9.5 ± 1.3", "unit": "%"}, {"measurement": "Mean Weight (±SEM) DAY 5", "setting": "[1]; 50 mg/kg PO bid + DSS", "value": "23.1 ± 0.5", "unit": "grams"}, {"measurement": "% weight change (±SEM) DAY 6", "setting": "[1]; 50 mg/kg PO bid + DSS", "value": "−8.8 ± 2.2", "unit": "%"}, {"measurement": "Mean Weight (±SEM) DAY 6", "setting": "[1]; 50 mg/kg PO bid + DSS", "value": "23.3 ± 0.8", "unit": "grams"}, {"measurement": "% weight change (±SEM) DAY 7", "setting": "[1]; 50 mg/kg PO bid + DSS", "value": "−9.2 ± 1.9", "unit": "%"}, {"measurement": "Mean Weight (±SEM) DAY 7", "setting": "[1]; 50 mg/kg PO bid + DSS", "value": "23.2 ± 0.7", "unit": "grams"}, {"measurement": "% of Normal Length Shortening", "setting": "[1]; [4]", "value": 77.9, "unit": "%"}, {"measurement": "Blood in Feces (%)", "setting": "[1]; [4]", "value": 22, "unit": "%"}, {"measurement": "DAI mean ± SEM", "setting": "[1]; [4]", "value": "2.11 ± 0.25"}, {"measurement": "DAINWT Mean ± SEM (DAI without body weight parameter)", "setting": "[1]; [4]", "value": "2.06 ± 0.28"}, {"measurement": "Mean Colon Length Cm ± SEM", "setting": "[1]; [4]", "value": "9.2 ± 0.1", "unit": "Cm"}, {"measurement": "deaths", "setting": "[1]; 50 mg/kg dose", "value": 1}, {"measurement": "prevention of colitis produced by 5% Dextran Sulfate Sodium", "setting": "[1]; PO bid, 5% DSS", "value": "significant activity"}, {"measurement": "protection against weight loss", "setting": "[1]; any dose (25 and 50 mg/kg PO bid)", "value": "No significant protection"}, {"measurement": "shortening of the colon produced by DSS", "setting": "[1]; dose levels of 25 and 50 mg/kg PO bid", "value": "prevented"}, {"measurement": "weight DAY 0", "setting": "[2]; 12.5 mg/kg PO + DSS", "value": "23.6 ± 0.3"}, {"measurement": "% change (weight) DAY 5", "setting": "[2]; 12.5 mg/kg PO + DSS", "value": "+1.3 ± 1.0%"}, {"measurement": "weight DAY 5", "setting": "[2]; 12.5 mg/kg PO + DSS", "value": "23.9 ± 0.4"}, {"measurement": "% change (weight) DAY 6", "setting": "[2]; 12.5 mg/kg PO + DSS", "value": "0.0 ± 1.0", "unit": "%"}, {"measurement": "weight DAY 6", "setting": "[2]; 12.5 mg/kg PO + DSS", "value": "23.6 ± 0.4"}, {"measurement": "% change (weight) DAY 7", "setting": "[2]; 12.5 mg/kg PO + DSS", "value": "+1.3 ± 1.0%"}, {"measurement": "weight DAY 7", "setting": "[2]; 12.5 mg/kg PO + DSS", "value": "23.9 ± 0.4"}, {"measurement": "% Inh. Colonic Shortening", "setting": "[2]; 12.5 mg/kg PO daily", "value": 65, "unit": "%"}, {"measurement": "% of Normal Length Shortening", "setting": "[2]; 12.5 mg/kg PO daily", "value": 89.6, "unit": "%"}, {"measurement": "DAI mean ± SEM", "setting": "[2]; 12.5 mg/kg PO daily", "value": "1.57 ± 0.17"}, {"measurement": "DAINWT mean ± SEM", "setting": "[2]; 12.5 mg/kg PO daily", "value": "2.25 ± 0.25"}, {"measurement": "Mean Colon Length Cm ± SEM", "setting": "[2]; 12.5 mg/kg PO daily", "value": "10.0 ± 0.1", "unit": "Cm"}, {"measurement": "weight DAY 0", "setting": "[2]; 25 mg/kg PO + DSS", "value": "24.2 ± 0.4"}, {"measurement": "weight DAY 5", "setting": "[2]; 25 mg/kg PO + DSS", "value": "24.7 ± 0.6"}, {"measurement": "% change (weight) DAY 6", "setting": "[2]; 25 mg/kg PO + DSS", "value": "−1.2 ± 1.0", "unit": "%"}, {"measurement": "weight DAY 6", "setting": "[2]; 25 mg/kg PO + DSS", "value": "23.9 ± 0.5"}, {"measurement": "% change (weight) DAY 7", "setting": "[2]; 25 mg/kg PO + DSS", "value": "+2.9 ± 1.0%"}, {"measurement": "weight DAY 7", "setting": "[2]; 25 mg/kg PO + DSS", "value": "24.9 ± 0.5"}, {"measurement": "% Inh. Colonic Shortening", "setting": "[2]; 25 mg/kg PO", "value": 58, "unit": "%"}, {"measurement": "% of Normal Length Shortening", "setting": "[2]; 25 mg/kg PO", "value": 88.7, "unit": "%"}, {"measurement": "DAI mean ± SEM", "setting": "[2]; 25 mg/kg PO", "value": "1.53 ± 0.17"}, {"measurement": "DAINWT mean ± SEM", "setting": "[2]; 25 mg/kg PO", "value": "2.30 ± 0.25"}, {"measurement": "Mean Colon Length Cm ± SEM", "setting": "[2]; 25 mg/kg PO", "value": "9.9 ± 0.3", "unit": "Cm"}, {"measurement": "weight DAY 0", "setting": "[2]; 50 mg/kg PO + DSS", "value": "23.9 ± 0.3"}, {"measurement": "% change (weight) DAY 5", "setting": "[2]; 50 mg/kg PO + DSS", "value": "−0.7 ± 1.0", "unit": "%"}, {"measurement": "weight DAY 5", "setting": "[2]; 50 mg/kg PO + DSS", "value": "23.9 ± 0.3"}, {"measurement": "% change (weight) DAY 6", "setting": "[2]; 50 mg/kg PO + DSS", "value": "−1.6 ± 1.0", "unit": "%"}, {"measurement": "weight DAY 6", "setting": "[2]; 50 mg/kg PO + DSS", "value": "23.5 ± 0.3"}, {"measurement": "% change (weight) DAY 7", "setting": "[2]; 50 mg/kg PO + DSS", "value": "−0.3 ± 2.0", "unit": "%"}, {"measurement": "weight DAY 7", "setting": "[2]; 50 mg/kg PO + DSS", "value": "23.8 ± 0.3"}, {"measurement": "% Inh. Colonic Shortening", "setting": "[2]; 50 mg/kg PO", "value": 52, "unit": "%"}, {"measurement": "% of Normal Length Shortening", "setting": "[2]; 50 mg/kg PO", "value": 87.0, "unit": "%"}, {"measurement": "DAI mean ± SEM", "setting": "[2]; 50 mg/kg PO", "value": "1.70 ± 0.18"}, {"measurement": "DAINWT mean ± SEM", "setting": "[2]; 50 mg/kg PO", "value": "2.30 ± 0.24"}, {"measurement": "Mean Colon Length Cm ± SEM", "setting": "[2]; 50 mg/kg PO", "value": "9.7 ± 0.2", "unit": "Cm"}, {"measurement": "deaths during the duration of the experiment", "setting": "[2]; 12.5, 25, 50 mg/kg PO", "value": "No deaths"}, {"measurement": "dose of maximal effectiveness on prevention of colonic shortening", "setting": "[2]; PO daily, lowest dose tested", "value": 12.5, "unit": "mg/kg"}, {"measurement": "protection based on DAI and DAINWT", "setting": "[2]; all doses (12.5, 25, 50 mg/kg PO)", "value": "statistically significant protection"}]}
